Assays:
Gamma-secretase = test: Modulation of gamma-secretase in HEK293 cells expressing guinea pig Swedish mutant SFV-APP695sw assessed as inhibition of amyloid beta-42 production after 16 to 18 hrs by HTRF assay; format: cell-based, Homo sapiens
[1] = Metabolic stability in human liver microsomes at 1 uM after 30 mins; format: ADME; settings: read-out: Stability
[2] = Metabolic stability in rat liver microsomes at 1 uM after 30 mins; format: ADME; settings: read-out: Stability
Cytochrome P450 2D6 = Cytochrome P450 2D6 (Homo sapiens, UniProt P10635); test: Inhibition of CYP2D6 (unknown origin) after 10 mins; format: ADME
Sequence of Cytochrome P450 2D6 (P10635 whole entry): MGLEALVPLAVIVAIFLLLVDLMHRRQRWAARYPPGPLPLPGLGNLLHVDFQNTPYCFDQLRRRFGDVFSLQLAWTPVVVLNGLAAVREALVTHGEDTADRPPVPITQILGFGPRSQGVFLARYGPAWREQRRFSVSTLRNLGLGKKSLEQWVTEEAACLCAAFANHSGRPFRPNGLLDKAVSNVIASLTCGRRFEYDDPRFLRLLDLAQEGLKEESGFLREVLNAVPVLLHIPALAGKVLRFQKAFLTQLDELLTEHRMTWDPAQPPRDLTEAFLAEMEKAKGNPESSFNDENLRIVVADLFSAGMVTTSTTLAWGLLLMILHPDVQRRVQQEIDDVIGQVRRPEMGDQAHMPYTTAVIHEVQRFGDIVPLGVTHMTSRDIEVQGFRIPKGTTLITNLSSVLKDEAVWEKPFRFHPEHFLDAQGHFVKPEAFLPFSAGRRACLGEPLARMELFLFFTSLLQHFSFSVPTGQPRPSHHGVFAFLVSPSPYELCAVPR

Cytochrome P450 3A4 = Cytochrome P450 3A4 (Homo sapiens, UniProt P08684); test: Inhibition of CYP3A4 (unknown origin) after 5 mins; format: ADME
Sequence of Cytochrome P450 3A4 (P08684 whole entry): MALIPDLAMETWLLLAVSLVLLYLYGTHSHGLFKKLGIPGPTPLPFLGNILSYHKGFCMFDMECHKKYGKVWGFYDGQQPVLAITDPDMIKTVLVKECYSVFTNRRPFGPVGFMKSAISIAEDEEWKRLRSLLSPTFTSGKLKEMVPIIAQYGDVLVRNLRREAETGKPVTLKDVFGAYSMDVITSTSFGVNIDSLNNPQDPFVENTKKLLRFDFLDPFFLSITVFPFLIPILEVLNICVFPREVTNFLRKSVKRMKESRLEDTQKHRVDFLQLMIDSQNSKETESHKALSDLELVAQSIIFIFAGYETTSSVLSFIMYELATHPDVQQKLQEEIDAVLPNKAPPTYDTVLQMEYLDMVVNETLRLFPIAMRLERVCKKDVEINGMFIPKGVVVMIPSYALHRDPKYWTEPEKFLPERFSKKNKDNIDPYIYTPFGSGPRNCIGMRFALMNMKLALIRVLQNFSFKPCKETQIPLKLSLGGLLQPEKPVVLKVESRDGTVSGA

[3] = Ratio of drug level in brain to plasma in mouse at 10 mg/kg, po after 2 hrs; format: ADME, organism-based; parameters: dose 10 mg/kg, route oral; settings: read-out: BPR

| Compound | IC50 (Gamma-secretase) [nM] | microsomal CLint at 1 µM [1] [µL/min/mg] | microsomal CLint at 1 µM [2] [µL/min/mg] | IC50 (Cytochrome P450 2D6) [nM] | IC50 (Cytochrome P450 3A4) [nM] | Kp at 2 h [3] |
| --- | --- | --- | --- | --- | --- | --- |
| Cc1cc(-c2ccc(NC(=O)C(C)c3cccc(-c4ccncc4)c3)cc2)ccn1 (configuration not stated) | 1200 | – | – | – | – | – |
| O=S(=O)(Nc1ccc(-c2cc[nH]n2)cc1)c1cc(Cl)cc(Cl)c1 | > 10000 | 384 | > 399 | 11800 | 15300 | – |
| Cc1cc(-c2ccc(C(=O)NC(C)c3cc(C(F)(F)F)cc(C(F)(F)F)c3)cc2)ccn1 (configuration not stated) | > 10000 | – | – | – | – | – |
| Cc1cc(-c2ccc(C(=O)NCCc3ccc(Cl)cc3)cc2)ccn1 | 2120 | – | – | – | – | – |
| COc1ccc(-c2cccc(C(C)C(=O)Nc3ccc(-c4ccnc(C)c4)cc3)c2)cc1 (configuration not stated) | 150 | – | – | – | – | – |
| C=Cc1cc(-c2ccc(NS(=O)(=O)c3cc(C(F)(F)F)cc(C(F)(F)F)c3)cc2)ccn1 | 1260 | 193 | 169 | 700 | 4500 | – |
| Cc1nccn1-c1ccc(NS(=O)(=O)c2cc(Cl)cc(Cl)c2)cc1 | 9400 | 22 | 113 | > 27000 | > 27000 | – |
| Cc1cc(C)cc(C(C)C(=O)Nc2ccc(-c3ccnc(C)c3)cc2)c1 (configuration not stated) | 570 | – | – | – | – | – |
| Cc1cc(-c2ccc(N(C)C(=O)Cc3cc(C(F)(F)F)cc(C(F)(F)F)c3)cc2)ccn1 | > 10000 | – | – | – | – | – |
| COc1cc(C(=O)NCCc2ccc(Cl)cc2)ccc1-n1cnc(C)c1 | 420 | – | – | – | – | – |
| CCCc1cc(-c2ccc(NS(=O)(=O)c3cc(C(F)(F)F)cc(C(F)(F)F)c3)cc2)ccn1 | 4060 | 270 | 122 | 1800 | > 27000 | – |
| O=S(=O)(Nc1ccc(-c2cnco2)cc1)c1cc(Cl)cc(Cl)c1 | 1540 | 32 | 166 | 2900 | 1600 | 0.03 |
| COc1cc(NC(=O)[C@H](C)c2cc(C(F)(F)F)cc(C(F)(F)F)c2)ccc1-c1ccnc(C)c1 | 500 | – | – | – | – | – |
| Cc1cc(-c2ccc(NS(=O)(=O)c3cc(Cl)cc(Cl)c3)cc2)ccn1 | 720 | 497 | > 399 | 9800 | 4700 | 0.1 |
| Cc1cc(-c2ccc(NC(=O)C(C)c3cccc(-c4cccc(C#N)c4)c3)cc2)ccn1 (configuration not stated) | 220 | – | – | – | – | – |
| CCCCC(C(=O)Nc1ccc(-c2ccnc(C)c2)cc1)c1cccc(C)c1 (configuration not stated) | 490 | – | – | – | – | – |
| Cc1cc(-c2ccc(NC(=O)C(CC(C)C)c3cc(C(F)(F)F)cc(C(F)(F)F)c3)cc2)ccn1 (configuration not stated) | 820 | – | – | – | – | – |
| COc1cc(NS(=O)(=O)c2cc(C(F)(F)F)cc(C(F)(F)F)c2)ccc1-c1ccnc(C)c1 | 530 | – | – | – | – | – |

| Compound | IC50 (Gamma-secretase) [nM] | microsomal CLint at 1 µM [1] [µL/min/mg] | microsomal CLint at 1 µM [2] [µL/min/mg] | IC50 (Cytochrome P450 2D6) [nM] | IC50 (Cytochrome P450 3A4) [nM] | Kp at 2 h [3] |
| --- | --- | --- | --- | --- | --- | --- |
| Cc1cccc(C(CC(C)C)C(=O)Nc2ccc(-c3ccnc(C)c3)cc2)c1 (stereo in doubt; 50) | 170 | – | – | – | – | – |
| O=S(=O)(Nc1ccc(-n2ccnc2)cc1)c1cc(Cl)cc(Cl)c1 | 2100 | < 14 | < 14 | 100 | 100 | 0.07 |
| COc1cc(C(=O)NCCC(c2ccccc2)c2ccccc2)ccc1-n1cnc(C)c1 | 320 | – | > 399 | – | – | – |
| COc1cc(NS(=O)(=O)c2cc(Cl)cc(Cl)c2)ccc1-n1cnc(C)c1 | 1060 | – | – | – | – | – |
| Cc1cc(-c2ccc(NC(=O)C(C)c3cccc(-c4ccccc4C#N)c3)cc2)ccn1 (configuration not stated) | 570 | – | – | – | – | – |
| Cc1cc(-c2ccc(NC(=O)C(C)c3cccc(N4CCN(C)CC4)c3)cc2)ccn1 (configuration not stated) | > 10000 | – | – | – | – | – |
| COc1cc(NS(=O)(=O)c2ccc(Cl)c(Cl)c2)ccc1-n1cnc(C)c1 | 900 | – | – | – | – | – |
| Cc1cccc(C(C)C(=O)Nc2ccc(-c3ccnc(C)c3)cc2)c1 (configuration not stated) | 540 | – | – | – | – | – |
| Cc1cccc(C(CCCO)C(=O)Nc2ccc(-c3ccnc(C)c3)cc2)c1 (configuration not stated) | > 10000 | – | – | – | – | – |
| Cc1cc(-c2ccc(NC(=O)C(C)c3cccc(-c4ccc(C(=O)O)cc4)c3)cc2)ccn1 (configuration not stated) | > 10000 | – | – | – | – | – |
| Cc1cc(-c2ccc(NC(=O)C(C)c3cccc(N4CCOCC4)c3)cc2)ccn1 (configuration not stated) | 4800 | – | – | – | – | – |
| Cc1cc(-c2ccc(NC(=O)C(C)(C)c3cc(C(F)(F)F)cc(C(F)(F)F)c3)cc2)ccn1 | > 10000 | – | – | – | – | – |
| O=S(=O)(Nc1ccc(-c2nnco2)cc1)c1cc(Cl)cc(Cl)c1 | 2440 | 94 | 287 | 15100 | 27000 | 0.16 |
| CCCC(C(=O)Nc1ccc(-c2ccnc(C)c2)cc1)c1cccc(C)c1 (configuration not stated) | 540 | – | – | – | – | – |
| Cc1noc(-c2ccc(NS(=O)(=O)c3cc(Cl)cc(Cl)c3)cc2)n1 | > 10000 | > 399 | > 399 | > 27000 | > 27000 | – |
| Cc1cc(-c2ccc(NC(=O)C(C)c3cc(C(F)(F)F)cc(C(F)(F)F)n3)cc2)ccn1 (configuration not stated) | > 10000 | – | – | – | – | – |
| Cc1cc(-c2cccc(NC(=O)Cc3cc(C(F)(F)F)cc(C(F)(F)F)c3)c2)ccn1 | > 10000 | – | – | – | – | – |
| Cc1cc(-c2ccc(NC(=O)C(C)c3cccc(-c4cccnc4)c3)cc2)ccn1 (configuration not stated) | 1290 | – | – | – | – | – |

Source: ChEMBL document CHEMBL3085750, “Discovery of 2-methylpyridine-based biaryl amides as γ-secretase modulators for the treatment of Alzheimer's disease” (Bioorg Med Chem Lett, 2013)
